Laboratory results from PubChem BioAssay (NCI).
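Following 48 hours of exposure in 96-well plates, responses at five concentrations were used to interpolate endpoints linearly. TGI: total growth inhibition.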

How the values were obtained:
Experiment in all cases: NCI anticancer screen, dose series, 48 h
SK-OV-3 ovarian = tested on: SK-OV-3 ovarian
OVCAR-4 ovarian = tested on: OVCAR-4 ovarian
SK-MEL-5 melanoma = tested on: SK-MEL-5 melanoma
IGROV1 ovarian = tested on: IGROV1 ovarian
MDA-N = tested on: MDA-N
MCF7 breast = tested on: MCF7 breast
CAKI-1 renal = tested on: CAKI-1 renal
RXF 393 renal = tested on: RXF 393 renal
LOX IMVI melanoma = tested on: LOX IMVI melanoma
KM12 colon = tested on: KM12 colon
MDA-MB-435 = tested on: MDA-MB-435
PC-3 prostate = tested on: PC-3 prostate
786-0 renal = tested on: 786-0 renal
CCRF-CEM leukemia = tested on: CCRF-CEM leukemia
HS 578T breast = tested on: HS 578T breast
TK-10 renal = tested on: TK-10 renal
MALME-3M melanoma = tested on: MALME-3M melanoma
DU-145 prostate = tested on: DU-145 prostate
M14 melanoma = tested on: M14 melanoma
HCT-116 colon = tested on: HCT-116 colon
OVCAR-3 ovarian = tested on: OVCAR-3 ovarian
NCI/ADR-RES ovarian = tested on: NCI/ADR-RES ovarian
RPMI-8226 leukemia = tested on: RPMI-8226 leukemia
UACC-62 melanoma = tested on: UACC-62 melanoma
UO-31 renal = tested on: UO-31 renal
SR leukemia = tested on: SR leukemia
HT29 colon = tested on: HT29 colon
SK-MEL-28 melanoma = tested on: SK-MEL-28 melanoma
HOP-62 NSCLC = tested on: HOP-62 NSCLC
SF-268 CNS = tested on: SF-268 CNS
MOLT-4 leukemia = tested on: MOLT-4 leukemia
SNB-19 CNS = tested on: SNB-19 CNS
HOP-92 NSCLC = tested on: HOP-92 NSCLC
T-47D breast = tested on: T-47D breast
MDA-MB-231 breast = tested on: MDA-MB-231 breast
SW-620 colon = tested on: SW-620 colon
NCI-H23 lung = tested on: NCI-H23 lung
K-562 leukemia = tested on: K-562 leukemia
ACHN renal = tested on: ACHN renal
HCT-15 colon = tested on: HCT-15 colon
A549 NSCLC = tested on: A549 NSCLC
A498 renal = tested on: A498 renal
OVCAR-8 ovarian = tested on: OVCAR-8 ovarian
SN12C renal = tested on: SN12C renal
EKVX NSCLC = tested on: EKVX NSCLC
OVCAR-5 ovarian = tested on: OVCAR-5 ovarian
UACC-257 melanoma = tested on: UACC-257 melanoma
COLO 205 colon = tested on: COLO 205 colon
SF-295 CNS = tested on: SF-295 CNS
BT-549 breast = tested on: BT-549 breast
NCI-H460 lung = tested on: NCI-H460 lung
SK-MEL-2 melanoma = tested on: SK-MEL-2 melanoma
NCI-H226 lung = tested on: NCI-H226 lung
SF-539 CNS = tested on: SF-539 CNS
SNB-75 CNS = tested on: SNB-75 CNS
U251 CNS = tested on: U251 CNS
NCI-H522 lung = tested on: NCI-H522 lung
HCC-2998 colon = tested on: HCC-2998 colon

COc1cc(C2SC(N)=Nc3c2c(C)nn3C(=O)c2ccccc2O)cc(OC)c1OC (stereo not given)
TGI (SK-OV-3 ovarian): > 10 µM
TGI (OVCAR-4 ovarian): > 10 µM
TGI (SK-MEL-5 melanoma): > 10 µM
TGI (IGROV1 ovarian): 9.01 µM
TGI (MDA-N): > 10 µM
TGI (MCF7 breast): > 10 µM
TGI (CAKI-1 renal): > 10 µM
TGI (RXF 393 renal): > 10 µM
TGI (LOX IMVI melanoma): > 10 µM
TGI (KM12 colon): > 10 µM
TGI (MDA-MB-435): > 10 µM
TGI (PC-3 prostate): > 10 µM
TGI (786-0 renal): > 10 µM
TGI (CCRF-CEM leukemia): > 10 µM
TGI (HS 578T breast): 8.53 µM
TGI (TK-10 renal): > 10 µM
TGI (MALME-3M melanoma): > 10 µM
TGI (DU-145 prostate): > 10 µM
TGI (M14 melanoma): > 10 µM
TGI (HCT-116 colon): > 10 µM
TGI (OVCAR-3 ovarian): > 10 µM
TGI (NCI/ADR-RES ovarian): > 10 µM
TGI (RPMI-8226 leukemia): > 10 µM
TGI (UACC-62 melanoma): 8.19 µM
TGI (UO-31 renal): > 10 µM
TGI (SR leukemia): > 10 µM
TGI (HT29 colon): > 10 µM
TGI (SK-MEL-28 melanoma): > 10 µM
TGI (HOP-62 NSCLC): > 10 µM
TGI (SF-268 CNS): > 10 µM
TGI (MOLT-4 leukemia): > 10 µM
TGI (SNB-19 CNS): > 10 µM
TGI (HOP-92 NSCLC): 8.07 µM
TGI (T-47D breast): > 10 µM
TGI (MDA-MB-231 breast): > 10 µM
TGI (SW-620 colon): > 10 µM
TGI (NCI-H23 lung): > 10 µM
TGI (K-562 leukemia): > 10 µM
TGI (ACHN renal): > 10 µM
TGI (HCT-15 colon): > 10 µM
TGI (A549 NSCLC): > 10 µM
TGI (A498 renal): > 10 µM
TGI (OVCAR-8 ovarian): > 10 µM
TGI (SN12C renal): > 10 µM
TGI (EKVX NSCLC): > 10 µM
TGI (OVCAR-5 ovarian): > 10 µM
TGI (UACC-257 melanoma): > 10 µM
TGI (COLO 205 colon): > 10 µM
TGI (SF-295 CNS): > 10 µM
TGI (BT-549 breast): > 10 µM
TGI (NCI-H460 lung): > 10 µM
TGI (SK-MEL-2 melanoma): > 10 µM
TGI (NCI-H226 lung): > 10 µM
TGI (SF-539 CNS): > 10 µM
TGI (SNB-75 CNS): 6.85 µM
TGI (U251 CNS): > 10 µM

Clc1ncnc(Cl)c1Cl
TGI (NCI-H522 lung): > 100 µM
TGI (SK-OV-3 ovarian): > 100 µM
TGI (HCC-2998 colon): > 100 µM
TGI (OVCAR-4 ovarian): > 100 µM
TGI (SK-MEL-5 melanoma): > 100 µM
TGI (IGROV1 ovarian): > 100 µM
TGI (MDA-N): > 100 µM
TGI (MCF7 breast): > 100 µM
TGI (CAKI-1 renal): > 100 µM
TGI (RXF 393 renal): > 100 µM
TGI (LOX IMVI melanoma): > 100 µM
TGI (KM12 colon): > 100 µM
TGI (MDA-MB-435): > 100 µM
TGI (PC-3 prostate): > 100 µM
TGI (786-0 renal): > 100 µM
TGI (CCRF-CEM leukemia): > 100 µM
TGI (HS 578T breast): > 100 µM
TGI (TK-10 renal): > 100 µM
TGI (MALME-3M melanoma): > 100 µM
TGI (DU-145 prostate): > 100 µM
TGI (M14 melanoma): > 100 µM
TGI (HCT-116 colon): > 100 µM
TGI (OVCAR-3 ovarian): > 100 µM
TGI (NCI/ADR-RES ovarian): > 100 µM
TGI (RPMI-8226 leukemia): > 100 µM
TGI (UACC-62 melanoma): > 100 µM
TGI (UO-31 renal): > 100 µM
TGI (SR leukemia): > 100 µM
TGI (HT29 colon): > 100 µM
TGI (SK-MEL-28 melanoma): > 100 µM
TGI (HOP-62 NSCLC): > 100 µM
TGI (SF-268 CNS): > 100 µM
TGI (MOLT-4 leukemia): > 100 µM
TGI (SNB-19 CNS): > 100 µM
TGI (HOP-92 NSCLC): > 100 µM
TGI (T-47D breast): > 100 µM
TGI (MDA-MB-231 breast): > 100 µM
TGI (SW-620 colon): > 100 µM
TGI (NCI-H23 lung): > 100 µM
TGI (K-562 leukemia): > 100 µM
TGI (ACHN renal): > 100 µM
TGI (HCT-15 colon): > 100 µM
TGI (A549 NSCLC): > 100 µM
TGI (OVCAR-8 ovarian): > 100 µM
TGI (SN12C renal): > 100 µM
TGI (OVCAR-5 ovarian): > 100 µM
TGI (COLO 205 colon): > 100 µM
TGI (SF-295 CNS): > 100 µM
TGI (NCI-H460 lung): > 100 µM
TGI (NCI-H226 lung): > 100 µM
TGI (SF-539 CNS): > 100 µM
TGI (SNB-75 CNS): > 100 µM
TGI (U251 CNS): > 100 µM

Cc1c(N2CCCC2)cc2c(c1NC(=O)c1ccccc1Cl)C(C)(C)CC2(C)C
TGI (NCI-H522 lung): 28.4 µM
TGI (SK-OV-3 ovarian): 27.2 µM
TGI (HCC-2998 colon): 25.9 µM
TGI (OVCAR-4 ovarian): 33.3 µM
TGI (SK-MEL-5 melanoma): 33.7 µM
TGI (IGROV1 ovarian): 28 µM
TGI (MDA-N): 28.5 µM
TGI (MCF7 breast): 28.4 µM
TGI (CAKI-1 renal): 26.1 µM
TGI (RXF 393 renal): 27.5 µM
TGI (LOX IMVI melanoma): 27.4 µM
TGI (KM12 colon): 30.3 µM
TGI (MDA-MB-435): 27.9 µM
TGI (PC-3 prostate): 29.9 µM
TGI (786-0 renal): 27.8 µM
TGI (HS 578T breast): 38.4 µM
TGI (TK-10 renal): 23.1 µM
TGI (MALME-3M melanoma): 36.1 µM
TGI (DU-145 prostate): 29.3 µM
TGI (M14 melanoma): 26.8 µM
TGI (HCT-116 colon): 22.8 µM
TGI (OVCAR-3 ovarian): 21.3 µM
TGI (NCI/ADR-RES ovarian): 29.5 µM
TGI (RPMI-8226 leukemia): 34.2 µM
TGI (UACC-62 melanoma): 23.2 µM
TGI (UO-31 renal): 26.4 µM
TGI (SR leukemia): 38.1 µM
TGI (HT29 colon): 29.4 µM
TGI (SK-MEL-28 melanoma): 33.1 µM
TGI (HOP-62 NSCLC): 28.4 µM
TGI (SF-268 CNS): 30.6 µM
TGI (SNB-19 CNS): 29.5 µM
TGI (HOP-92 NSCLC): 24 µM
TGI (T-47D breast): 24.6 µM
TGI (MDA-MB-231 breast): 29.3 µM
TGI (SW-620 colon): 33.1 µM
TGI (NCI-H23 lung): 28.5 µM
TGI (K-562 leukemia): > 100 µM
TGI (ACHN renal): 28.4 µM
TGI (HCT-15 colon): 28.3 µM
TGI (A549 NSCLC): 27.6 µM
TGI (A498 renal): 29.1 µM
TGI (OVCAR-8 ovarian): 32.6 µM
TGI (SN12C renal): 33.2 µM
TGI (EKVX NSCLC): 29.9 µM
TGI (OVCAR-5 ovarian): 32.2 µM
TGI (UACC-257 melanoma): 24.1 µM
TGI (COLO 205 colon): 35.2 µM
TGI (SF-295 CNS): 26.8 µM
TGI (BT-549 breast): 32 µM
TGI (NCI-H460 lung): 26 µM
TGI (SK-MEL-2 melanoma): 30 µM
TGI (NCI-H226 lung): 41.5 µM
TGI (SF-539 CNS): 39.7 µM
TGI (SNB-75 CNS): 28.9 µM
TGI (U251 CNS): 27.6 µM
